Source: ChEMBL document CHEMBL1833788, “Selective water-soluble gelatinase inhibitor prodrugs” (J Med Chem, 2011)

Experiments:
Plasma [1] = experiment: Half life in human plasma at 10 mM by reversed-phase HPLC/UV analysis; type: ADME, cell-free; conditions: 10000 µM
[2] = Chemical stability of the compound in aqueous solution at 10 mg/ml by HPLC after 1 month; type: physicochemical; conditions: buffer, 730.5 h
[3] = Solubility of the compound in aqueous solution at 10 mg/ml by UV spectroscopy; type: physicochemical
Blood [4] = experiment: Half life in human blood at 10 mM by reversed-phase HPLC/UV analysis; type: ADME, tissue-based; conditions: 10000 µM
Plasma [5] = experiment: Metabolic stability of the compound in human plasma at 10 mM after 2 mins by reversed-phase HPLC/UV analysis; type: ADME, cell-free; conditions: 10000 µM
[6] = Chemical stability of the compound in aqueous solution at 10 mg/ml by HPLC up to 2 hrs; type: physicochemical; conditions: buffer
Blood [7] = experiment: Prodrug conversion in human blood assessed as release of 4-[4-((Thiiran-2-yl)methylsulphonyl)phenoxy]benzamine at 10 mM after 30 mins by reversed-phase HPLC/UV analysis; type: ADME, tissue-based; conditions: 0.5 h, 10000 µM
Salmonella typhimurium [8] = experiment: Induction of mutagenicity in Salmonella Typhimurium TA7001 to TA7006 at 1 mg/mL after 48 hrs by Ames assay in presence of rat liver S9 metabolic activation system; type: toxicity, organism-based; conditions: salmonella enterica subsp. enterica serovar typhimurium, s9, 48 h
Salmonella typhimurium [9] = experiment: Induction of mutagenicity in Salmonella Typhimurium TA98 at 1 mg/mL after 48 hrs by Ames assay in absence of rat liver S9 metabolic activation system; type: toxicity, organism-based; conditions: salmonella enterica subsp. enterica serovar typhimurium, s9, 48 h
Liver microsomes [10] = experiment: Half life in human liver microsomes at 100 uM by reversed-phase HPLC/UV analysis; type: ADME, Microsome
Liver microsomes [11] = experiment: Half life in rat liver microsomes at 100 uM by reversed-phase HPLC/UV analysis; type: ADME, Microsome
Liver microsomes [12] = experiment: Prodrug conversion in rat liver microsomes assessed as release of 4-(4-{[(1-oxidothiiran-2-yl)methyl]sulfonyl}phenoxy)aniline after 30 mins by HPLC/MS analysis; type: ADME, Microsome; conditions: 0.5 h
Salmonella typhimurium [13] = experiment: Induction of mutagenicity in Salmonella Typhimurium TA7001 to TA7006 at 1 mg/mL after 48 hrs by Ames assay in absence of rat liver S9 metabolic activation system; type: toxicity, organism-based; conditions: salmonella enterica subsp. enterica serovar typhimurium
Liver = experiment: Half life in mouse liver microsomes at 100 uM by reversed-phase HPLC/UV analysis; type: ADME, Microsome
[14] = Apparent intrinsic clearance in human liver microsomes; type: ADME, Microsome
Liver microsomes [15] = experiment: Prodrug conversion in rat liver microsomes assessed as release of 2-amino-5-(4-(thiiran-2-ylmethylsulfonyl)phenoxy)phenol after 30 mins by HPLC/MS analysis; type: ADME, Microsome; conditions: 0.5 h
Salmonella typhimurium [16] = experiment: Induction of mutagenicity in Salmonella Typhimurium TA98 at 1 mg/mL after 48 hrs by Ames assay in presence of rat liver S9 metabolic activation system; type: toxicity, organism-based; conditions: salmonella enterica subsp. enterica serovar typhimurium, s9, 48 h
Mus musculus [17] = experiment: Terminal half life in C57B1/6 mouse plasma assessed as N-(4-(4-(thiiran-2-ylmethylsulfonyl)phenoxy)phenyl)acetamide level at […], iv administered as single bolus dose; type: ADME, organism-based; conditions: in vivo, BLD = below limit of detection
Mus musculus [18] = experiment: Distribution half life in C57B1/6 mouse plasma assessed as N-(4-(4-(thiiran-2-ylmethylsulfonyl)phenoxy)phenyl)acetamide level at […], iv administered as single bolus dose; type: ADME, organism-based; conditions: in vivo
Mus musculus [19] = experiment: AUC (0 to infinity) in C57B1/6 mouse plasma assessed as N-(4-(4-(thiiran-2-ylmethylsulfonyl)phenoxy)phenyl)acetamide level at […], iv administered as single bolus dose; type: ADME, organism-based; conditions: in vivo, BLD = below limit of detection
Mus musculus [20] = experiment: Prodrug conversion in C57B1/6 mouse assessed as N-(4-(4-(thiiran-2-ylmethylsulfonyl)phenoxy)phenyl)acetamide level in plasma at […], iv administered as single bolus dose after 62 to 66 mins by reversed-phase LC/MS analysis; conditions: in vivo
Mus musculus [21] = experiment: Prodrug conversion in C57B1/6 mouse assessed as N-(4-(4-(thiiran-2-ylmethylsulfonyl)phenoxy)phenyl)acetamide level in plasma at […], iv administered as single bolus dose after 11 to 12 mins by reversed-phase LC/MS analysis; conditions: in vivo
Mus musculus [22] = experiment: Prodrug conversion in C57B1/6 mouse assessed as N-(4-(4-((Thiiran-2-ylmethyl)sulfonyl)phenoxy)phenyl) hydroxylamine level in plasma at […], iv administered as single dose by reversed-phase LC/MS analysis; type: ADME, organism-based; conditions: in vivo
Mus musculus [23] = experiment: Prodrug conversion in C57B1/6 mouse assessed as N-(4-(4-(thiiran-2-ylmethylsulfonyl)phenoxy)phenyl)acetamide level in plasma at […], iv administered as single bolus dose after 120 to 123 mins by reversed-phase LC/MS analysis; conditions: in vivo
Mus musculus [24] = experiment: Clearance in C57B1/6 mouse plasma assessed as parent compound level at […], iv administered as single bolus dose; type: ADME, organism-based; conditions: in vivo
Mus musculus [25] = experiment: Terminal half life in C57B1/6 mouse plasma assessed as parent compound level at […], iv administered as single bolus dose; type: ADME, organism-based; conditions: in vivo
Mus musculus [26] = experiment: Prodrug conversion in C57B1/6 mouse assessed as N-(4-(4-(thiiran-2-ylmethylsulfonyl)phenoxy)phenyl)acetamide level in plasma at […], iv administered as single bolus dose after 7 to 8 mins by reversed-phase LC/MS analysis; conditions: in vivo
Mus musculus [27] = experiment: Volume of distribution in C57B1/6 mouse plasma assessed as parent compound level at […], iv administered as single bolus dose; type: ADME, organism-based; conditions: in vivo
Mus musculus [28] = experiment: Prodrug conversion in C57B1/6 mouse assessed as N-(4-(4-((Thiiran-2-ylmethyl)sulfonyl)phenoxy)phenyl) hydroxylamine level in urine at […], iv administered as single dose by reversed-phase LC/MS analysis; type: ADME, organism-based; conditions: in vivo
Mus musculus [29] = experiment: Prodrug conversion in C57B1/6 mouse assessed as N-(4-(4-(thiiran-2-ylmethylsulfonyl)phenoxy)phenyl)acetamide level in plasma at […], iv administered as single bolus dose after 2 to 3 mins by reversed-phase LC/MS analysis; conditions: in vivo
Mus musculus [30] = experiment: Prodrug conversion in C57B1/6 mouse assessed as N-(4-(4-(thiiran-2-ylmethylsulfonyl)phenoxy)phenyl)acetamide level in plasma at […], iv administered as single bolus dose after 30 mins by reversed-phase LC/MS analysis; conditions: in vivo, 0.5 h
Mus musculus [31] = experiment: AUC (0 to infinity) in C57B1/6 mouse plasma assessed as parent compound level at […], iv administered as single bolus dose; type: ADME, organism-based; conditions: in vivo
Mus musculus [32] = experiment: AUC (0 to last) in C57B1/6 mouse plasma assessed as N-(4-(4-(thiiran-2-ylmethylsulfonyl)phenoxy)phenyl)acetamide level at […], iv administered as single bolus dose; type: ADME, organism-based; conditions: in vivo
Liver microsomes [33] = experiment: Prodrug conversion in rat liver microsomes assessed as release of 4-(4-((S)-2-amino-5-guanidinopentanamido)phenoxy)benzenesulfinic acid after 60 mins by HPLC/MS analysis; type: ADME, Microsome; conditions: 1 h
Rattus norvegicus = species on record: Rattus norvegicus; experiment: Hepatic blood flow in rat; type: ADME, organism-based, Liver
Homo sapiens = species on record: Homo sapiens; experiment: Hepatic blood flow in human; type: ADME, organism-based, Liver
Liver microsomes [34] = experiment: Prodrug conversion in rat liver microsomes assessed as release of 4-(4-aminophenoxy)benzenesulfinic acid after 60 mins by HPLC/MS analysis; type: ADME, Microsome; conditions: 1 h
Liver microsomes [35] = experiment: Prodrug conversion in rat liver microsomes assessed as release of N-(4-(4-(thiiran-2-ylmethylsulfonyl)phenoxy)phenyl)acetamide after 60 mins by HPLC/MS analysis; type: ADME, Microsome; conditions: 1 h
Mus musculus [36] = species on record: Mus musculus; experiment: Hepatic blood flow in mouse; type: ADME, organism-based, Liver

Which t1/2 (Plasma [1]) does the source give for `N=C(N)NCCC[C@H](NC(=O)[C@@H](N)CCCNC(=N)N)C(=O)Nc1ccc(Oc2ccc(S(=O)(=O)CC3CS3)cc2)cc1` (some centres undefined) here?
Its t1/2 is 11.8 min.

What about the Stability [2] of the same compound?
Its Stability is “Stable”.

What about the solubility [3] of the same compound?
The solubility was > 10000 µg/mL.

And the t1/2 (Blood [4])?
The t1/2 was 5.9 min.

What does the source list for `N=C(N)NCCC[C@H](N)C(=O)Oc1ccc(Oc2ccc(S(=O)(=O)CC3CS3)cc2)cc1` (some centres undefined)?
Stability (Plasma [5]): Unstable; solubility [3]: > 10000 µg/mL; Stability [6]: Unstable

For `N[C@@H](CCC(=O)O)C(=O)Oc1ccc(Oc2ccc(S(=O)(=O)CC3CS3)cc2)cc1` (some centres undefined), which Stability (Plasma [5]) is on record?
Its Stability is “Unstable”.

What about the solubility [3] of the same compound?
Its solubility is > 10000 µg/mL.

What about the Stability [6] of the same compound?
Its Stability is “Unstable”.

Which results are given for `NCC(=O)Nc1ccc(Oc2ccc(S(=O)(=O)CC3CS3)cc2)cc1` (centres undefined)?
t1/2 (Plasma [1]): 32.4 min; Stability [2]: Stable; solubility [3]: > 10000 µg/mL; Drug metabolism (Blood [7]): Active; t1/2 (Blood [4]): 27.1 min

With `Nc1ccc(Oc2ccc(S(=O)(=O)CC3CS3)cc2)cc1` (centres undefined) as the compound, how does the Activity (Salmonella typhimurium [8]) read?
Its Activity is “Non-toxic”.

And the Activity (Salmonella typhimurium [9])?
The Activity was “Non-toxic”.

What about the t1/2 (Liver microsomes [10]) of the same compound?
The t1/2 was > 60 min.

And the t1/2 (Liver microsomes [11])?
The t1/2 was 23.4 min.

What about the Drug metabolism (Liver microsomes [12]) of the same compound?
Its Drug metabolism is “Active”.

What about the Activity (Salmonella typhimurium [13]) of the same compound?
Its Activity is “Non-toxic”.

What about the t1/2 (Liver) of the same compound?
Its t1/2 is 27.3 min.

What about the CLint scaled [14] of the same compound?
Its CLint scaled is < 10 mL/min/kg.

And the Drug metabolism (Liver microsomes [15])?
The Drug metabolism was “Active”.

And the Activity (Salmonella typhimurium [16])?
The Activity was “Non-toxic”.

With `Cl.Nc1ccc(Oc2ccc(S(=O)(=O)CC3CS3)cc2)cc1` (centres undefined) as the compound, how does the “beta t1/2” value (Mus musculus [17]) read?
Its value is “BLD”.

And the alphat1/2 (Mus musculus [18])?
The alphat1/2 was 5.1 min.

What about the AUC (Mus musculus [19]) of the same compound?
The AUC was “BLD”.

And the Drug metabolism (Mus musculus [20])?
The Drug metabolism was 0.0273 µM.

What about the Drug metabolism (Mus musculus [21]) of the same compound?
Its Drug metabolism is 0.15 µM.

And the Drug metabolism (Mus musculus [22])?
Its Drug metabolism is “Not Active”.

What about the Drug metabolism (Mus musculus [23]) of the same compound?
The Drug metabolism was 0.00277 µM.

What about the CL (Mus musculus [24]) of the same compound?
The CL was 87.5 mL/min/kg.

What about the “beta t1/2” value (Mus musculus [25]) of the same compound?
The value was 21 min.

And the Drug metabolism (Mus musculus [26])?
The Drug metabolism was 0.192 µM.

What about the Vd (Mus musculus [27]) of the same compound?
The Vd was 0.532 L/kg.

And the Drug metabolism (Mus musculus [28])?
The Drug metabolism was “Not Active”.

What about the Drug metabolism (Mus musculus [29]) of the same compound?
The Drug metabolism was 0.197 µM.

And the Drug metabolism (Mus musculus [30])?
The Drug metabolism was 0.0958 µM.

What about the AUC (Mus musculus [31]) of the same compound?
The AUC was 221 µM·min.

What about the AUClast (Mus musculus [32]) of the same compound?
Its AUClast is 7.71 µM·min.

Which t1/2 (Plasma [1]) does the source give for `N=C(N)NCCC[C@H](N)C(=O)Nc1ccc(Oc2ccc(S(=O)(=O)CC3CS3)cc2)cc1` (some centres undefined) here?
Its t1/2 is 29.5 min.

And the Stability [2]?
The Stability was “Stable”.

And the Drug metabolism (Liver microsomes [33])?
The Drug metabolism was “Active”.

And the Activity (Salmonella typhimurium [8])?
Its Activity is “Non-toxic”.

And the Activity (Salmonella typhimurium [9])?
The Activity was “Non-toxic”.

And the t1/2 (Liver microsomes [10])?
The t1/2 was > 60 min.

And the t1/2 (Liver microsomes [11])?
The t1/2 was 59.3 min.

And the solubility [3]?
Its solubility is > 10000 µg/mL.

And the QH (Rattus norvegicus)?
The QH was 66 mL/min/kg.

What about the QH (Homo sapiens) of the same compound?
Its QH is 21 mL/min/kg.

What about the Drug metabolism (Blood [7]; TDE = time-dependent effect) of the same compound?
The Drug metabolism was “tde”.

What about the Activity (Salmonella typhimurium [13]) of the same compound?
Its Activity is “Non-toxic”.

And the Drug metabolism (Liver microsomes [34])?
Its Drug metabolism is “Active”.

What about the t1/2 (Liver) of the same compound?
Its t1/2 is > 60 min.

And the Drug metabolism (Liver microsomes [35])?
Its Drug metabolism is “Active”.

What about the t1/2 (Blood [4]) of the same compound?
Its t1/2 is 25.4 min.

And the Activity (Salmonella typhimurium [16])?
The Activity was “Non-toxic”.

What about the QH (Mus musculus [36]) of the same compound?
Its QH is 86 mL/min/kg.
